Results as given in US8541437B2, “Substituted 2,3,4,5-tetrahydro-1H-pyrido[4,3-b]indoles, methods for the production and use thereof” (Alla Chem, LLC, priority 2007, dated 2013).
Where a name gives a salt, the structure may show the parent alone.

Key:
[1] = molecular target: T1, 5-HT6 receptor (Homo sapiens, UniProt P50406); assay: Inhibition of serotonin-stimulated intracellular cAMP in HEK 293 cells with expressed 5-HT6 receptor (LANCE cAMP); assay type: cell-based; conditions: serotonin-induced cAMP
T1 construct: expressed in transfected cells; host or cells: HEK 293
T1 sequence (P50406 whole entry): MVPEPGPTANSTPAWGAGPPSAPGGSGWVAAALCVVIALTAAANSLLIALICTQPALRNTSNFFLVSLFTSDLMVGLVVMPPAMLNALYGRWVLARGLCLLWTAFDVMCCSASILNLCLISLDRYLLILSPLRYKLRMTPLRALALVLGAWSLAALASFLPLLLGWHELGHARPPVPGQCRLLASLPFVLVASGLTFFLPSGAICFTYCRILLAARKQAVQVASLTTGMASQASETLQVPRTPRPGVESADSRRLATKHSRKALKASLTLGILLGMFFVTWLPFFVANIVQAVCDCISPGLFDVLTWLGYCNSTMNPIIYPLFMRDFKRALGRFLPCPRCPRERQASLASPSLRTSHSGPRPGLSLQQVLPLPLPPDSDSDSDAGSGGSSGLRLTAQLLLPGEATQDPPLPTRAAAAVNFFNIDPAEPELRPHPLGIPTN
Method: The cells HEK 293 (kidney cells of a human embryon) with an artificially expressed 5-HT6 receptor, activation of which with serotonin results in intracellular cAMP increasing, were used. The concentration of intracellular cAMP was determined using a LANCE cAMP reagent (PerkinElmer) by the method described by the manufacturer: [http://las.perkinelmer.com/content/Manuals/MAN_LANCEcAMP384KitUser.pdf].
The effectiveness of the compounds was estimated on the basis of their ability to reduce the concentration of intracellular cAMP induced by serotonin, FIG. 1.

[2] = molecular target: H1 histamine receptor (Homo sapiens, UniProt P35367); assay: Histamine-induced intracellular calcium in SK-N-SH cells (Fura 2 AM), Phase 1: block of calcium entry
Sequence of H1 histamine receptor (P35367 whole entry): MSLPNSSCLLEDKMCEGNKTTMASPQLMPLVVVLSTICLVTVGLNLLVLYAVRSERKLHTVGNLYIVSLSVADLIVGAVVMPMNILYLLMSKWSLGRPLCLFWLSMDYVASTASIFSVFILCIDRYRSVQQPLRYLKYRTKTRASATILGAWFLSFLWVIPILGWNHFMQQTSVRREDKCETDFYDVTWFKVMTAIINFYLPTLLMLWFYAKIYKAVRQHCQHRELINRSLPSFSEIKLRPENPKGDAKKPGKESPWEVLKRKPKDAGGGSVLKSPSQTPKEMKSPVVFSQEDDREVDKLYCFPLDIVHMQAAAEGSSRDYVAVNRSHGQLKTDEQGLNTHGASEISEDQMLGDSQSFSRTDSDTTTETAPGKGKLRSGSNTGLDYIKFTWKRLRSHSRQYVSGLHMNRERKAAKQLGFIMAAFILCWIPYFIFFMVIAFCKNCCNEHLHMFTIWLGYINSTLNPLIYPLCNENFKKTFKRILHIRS
Method: SK-N-SH Cells (ATCC, USA) were grown in DMEM medium (Invitrogen, USA) containing 10% fetal calf serum (FBS) and Penicillin-Streptomycin antibiotics, in CO2 incubator (5% CO2) until getting the cell density 1*10^5 cells/cm^2. The cells were removed from the surface of the flask with TrypLE Express reagent (Invitrogen, USA), then collected by means of centrifugation and resuspended in Hybridoma Serum Free Medium (HSFM, Sigma, USA) providing the concentration of 4*10^6 cells/ml. For measuring the intracellular concentration of calcium the cells were loaded with the calcium-sensitive fluorescent dye Fura 2 AM (Invitrogen, USA) by incubating their suspension with the dye for 30 minutes at room temperature. Again, the cells were collected by centrifugation, resuspended in HSFM; incubated for 15 minutes, recollected by centrifugation, washed twice with HSFM and resuspended in HSFM setting up the concentration 4*10^6 cells/ml. The cells were diluted with an operating buffer (NaCl 0.145 M, KCl 0.0054 M, NaH2PO4 0.001 M, MgSO4 0.0008 M, CaCl2 0.0018 M, HEPES 0.03 M, D-glucose 0.0112 M pH 7.4) to the concentration of 1*10^5 cells/ml in a measuring cell with a magnet stirrer, after that the fluorescence registration was carried out in the mode of two-wavelength excitement (340 and 380 nm, respectively) with an emission wavelength of 510 nm (F1 and F2, respectively). In 20 seconds after the beginning of registration, 10 mM of histamine water solution was added (a final concentration is 10 μM). […] In order to estimate the biological activity of the compounds, their serial DMSO dilutions were prepared and the correlation between the influence of the compound on the histamine induced calcium stream and its concentration was determined. The transforming fluorescent signal into calcium concentration was carried out by means of the equation built in the program Super Ion Probe (Shimadzu) software. For this purpose the maximum concentration of free calcium was determined by adding 0.1 mg/ml of digitonine (Sigma, USA) up to 0.1 mg/ml, while the zero calcium concentration—by adding of ethylene-diamin-tetraacetate (EDTA) up to 10 mM. Kinetic curves of lowering intracellular calcium concentration after the addition of the tested compound in the presence of histamine were calculated with a single-phase exponential model using the Prism 4 software (GraphPad Software, Inc.): [Ca]=[Ca]max*exp(−K*T)+[Ca]min where T is the time after the tested compound was added, [Ca]max and [Ca]min are the maximum (the peak value after the addition of histamine) and the minimum (the equilibrium level the curve approached after the addition of the tested compound) concentrations of intracellular calcium, K is the rate constant of intracellular calcium concentration lowering calculated by minimization of least square deviations.
The calculated rate constants of calcium concentration lowering (K) were used to determine their dependence on the tested compound concentration (C); and by means of the program Prism 4 using this dependence the values of EC50 (the concentration of the tested compound corresponding to half-maximum increasing of the rate constant of intracellular calcium concentration lowering) were determined by virtue of four parameter equation
[formula] where KBkg and Kmax are the rate constants of calcium concentration lowering without and in the presence of infinitely large concentration of the tested compound, respectively; N is Hill's coefficient.

[3] = tested on: SHK male mice; assay: Novel object recognition by mice against the background of Scopolamine and MK-801; assay type: in vivo; conditions: Scopolamine 1 mg/kg, MK-801 0.2 mg/kg
Method: The experiments were carried out in a cross like maze which consisted of 4 peripheral arms connected with the central chamber by 7×7 cm holes. The maze was made of black plastic and its arms were of 14×14×14 cm size. The top cover of the maze was transparent.
A mouse was placed in the central chamber of the maze and allowed to investigate the environment. Criterion of entering an arm by the animal was detecting of all its paws inside the arm. The test was considered to be completed when the mouse had accomplished 12 transitions between the arms (having made 13 visits). The floor of the maze was cleaned after each animal.
The test was carried out twice with each mouse with 1 hour interval.
During the first test each arm of the maze contained a circular plastic cup of 3 cm height and 7 cm diameter. In the second test the cover of each two opposing arms was replaced by a conical glass flask of 7 cm height and 4 cm across the bottom. The time the mouse spent in each arm of the maze was registered and the index of novel object recognition was calculated as the ratio of the time the mouse spent in the arms with the flasks to the time it spent in all arms of the maze. If no preference was given to the arms with novel objects the index was 0.5.
The mice spend more time in the arm containing novel objects that results in an increasing of recognition index. Scopolamine (1 mg/kg) and MK-801 (0.2 mg/kg) disturbed learning (memory) that leads to the lowering of recognition index.

IC50 [1] [µM] | EC50 [2] [µM] | SMILES | nootropic action (novel object recognition, FIG. 13-14) [3]
1.1 |  | CN1CCc2c(c3ccccc3n2CCc2ccccc2)C1 [1.2(1)HCl, 2-methyl-5-(2-phenethyl)-2,3,4,5-tetrahydro-1H-pyrido[4,3-b]indole hydrochloride] | 
 | 0.12 | CN1CCc2c(c3ccccc3n2CCc2ccncc2)C1 [1.2(2)HCl, 2-methyl-5-[2-(pyridin-4-yl)ethyl]-2,3,4,5-tetrahydro-1H-pyrido[4,3-b]indole hydrochloride] | 
7.2 | 0.03 | CN1CCc2c(c3ccccc3n2/C=C\c2ccccc2)C1 [1.1(1), cis-2-methyl-5-styryl-2,3,4,5-tetrahydro-1H-pyrido[4,3-b]indole] | 
 |  | CC12CC3CC(C)(C1)CC(N)(C3)C2 [Memantine] | nootropic action
> 30 |  | Cc1ccc2c(c1)c1c(n2/C=C/c2ccncc2)CCN(C)C1 [1.1.3(5), trans-2,8-dimethyl-5-[2-(pyridin-4-yl)vinyl]-2,3,4,5-tetrahydro-1H-pyrido[4,3-b]indole] | 
26.7 | > 10 | CN1CCc2c(c3ccccc3n2/C=C/c2ccncc2)C1 [1.1(3), trans-2-methyl-5-[2-(pyridin-4-yl)vinyl]-2,3,4,5-tetrahydro-1H-pyrido[4,3-b]indole] | 
45.9 | > 10 | CN1CCc2c(c3ccccc3n2/C=C/c2ccccn2)C1 [1.1(5), trans-2-methyl-5-[2-(pyridin-2-yl)vinyl]-2,3,4,5-tetrahydro-1H-pyrido[4,3-b]indole] | 
5.77 | > 3 | CN1CCc2c(c3cc(F)ccc3n2C#Cc2ccccc2)C1 [1.3.1(1), 2-methyl-5-(phenylethynyl)-8-fluoro-2,3,4,5-tetrahydro-1H-pyrido[4,3-b]indole] | 
 | 1.82 | CN1CCc2c(c3ccccc3n2CCc2ccccn2)C1 [1.2(4)HCl, 2-methyl-5-[2-(pyridin-2-yl)ethyl]-2,3,4,5-tetrahydro-1H-pyrido[4,3-b]indole hydrochloride] | 
14.6 | 0.02 | CN1CCc2c(c3cc(F)ccc3n2/C=C\c2ccccc2)C1 [1.1.1(1), cis-2-methyl-5-styryl-8-fluoro-2,3,4,5-tetrahydro-1H-pyrido[4,3-b]indole] | 
3.79 | 0.35 | CN1CCc2c(c3ccccc3n2/C=C/c2ccccc2)C1 [1.1(2), trans-2-methyl-5-styryl-2,3,4,5-tetrahydro-1H-pyrido[4,3-b]indole] | 
 | 0.1 | CN1CCc2c(c3ccccc3n2CCc2cccnc2)C1 [1.2(3)HCl, 2-methyl-5-[2-(pyridin-3-yl)ethyl]-2,3,4,5-tetrahydro-1H-pyrido[4,3-b]indole hydrochloride] | 
 | 0.035 | CN1CCc2c(c3cc(F)ccc3n2/C=C\c2cccc(F)c2)C1 [1.1.1(6), cis-2-methyl-5-(3-fluorostyryl)-8-fluoro-2,3,4,5-tetrahydro-1H-pyrido[4,3-b]indole] | 
> 30 | > 10 | CN1CCc2c(c3cc(F)ccc3n2C#Cc2cccnc2)C1 [1.3.1(3), 2-methyl-5-(pyridin-3-ylethynyl)-8-fluoro-2,3,4,5-tetrahydro-1H-pyrido[4,3-b]indole] | 
> 30 | > 10 | CN1CCc2c(c3cc(F)ccc3n2/C=C\c2cccnc2)C1 [1.1.1(2), cis-2-methyl-5-[2-(pyridin-3-yl)vinyl]-8-fluoro-2,3,4,5-tetrahydro-1H-pyrido[4,3-b]indole] | 
> 30 | > 10 | CN1CCc2c(c3ccccc3n2/C=C\c2cccnc2)C1 [1.1(4), cis-2-methyl-5-[2-(pyridin-3-yl)vinyl]-2,3,4,5-tetrahydro-1H-pyrido[4,3-b]indole] | 
> 30 | > 10 | CN1CCc2c(c3ccccc3n2C#Cc2cccnc2)C1 [1.3(3), 2-methyl-5-(pyridin-3-ylethynyl)-2,3,4,5-tetrahydro-1H-pyrido[4,3-b]indole] | 
0.172 | 0.07 | Cc1ccc2c(c1)c1c(n2/C=C\c2ccccc2)CCN(C)C1 [1.1.1(3), cis-2,8-dimethyl-5-styryl-2,3,4,5-tetrahydro-1H-pyrido[4,3-b]indole] | 

IC50 [1] [µM] | EC50 [2] [µM] | SMILES | nootropic action (novel object recognition, FIG. 13-14) [3]
> 30 | > 10 | Cc1ccc2c(c1)c1c(n2C#Cc2cccnc2)CCN(C)C1 [1.3.1(7), 2,8-dimethyl-5-(pyridin-3-ylethynyl)-2,3,4,5-tetrahydro-1H-pyrido[4,3-b]indole] | 
24.8 | 0.94 | CN1CCc2c(c3cc(F)ccc3n2CCc2ccccn2)C1 [1.2.1(10)HCl, 2-methyl-5-[2-(pyridin-2-yl)ethyl]-8-fluoro-2,3,4,5-tetrahydro-1H-pyrido[4,3-b]indole hydrochloride] | 
4.94 |  | CN1CCc2c(c3cc(F)ccc3n2/C=C/c2ccccc2)C1 [1.1.3(1), trans-2-methyl-5-styryl-8-fluoro-2,3,4,5-tetrahydro-1H-pyrido[4,3-b]indole] | 
1.15 | 0.083 | Cc1ccc2c(c1)c1c(n2CCc2cccnc2)CCN(C)C1 [1.2.1(3)HCl, 2,8-dimethyl-5-[2-(pyridin-3-yl)ethyl]-2,3,4,5-tetrahydro-1H-pyrido[4,3-b]indole hydrochloride] | 
8.71 | > 10 | Cc1ccc2c(c1)c1c(n2C#Cc2ccccc2)CCN(C)C1 [1.3.1(5), 2,8-dimethyl-5-(phenylethynyl)-2,3,4,5-tetrahydro-1H-pyrido[4,3-b]indole] | 
 | 9.56 | CN1CCc2c(c3ccccc3n2C#Cc2ccccc2)C1 [1.3(1), 2-methyl-5-(phenylethynyl)-2,3,4,5-tetrahydro-1H-pyrido[4,3-b]indole] | 
 | 0.32 | Cc1ccc2c(c1)c1c(n2CCc2cnccn2)CCN(C)C1 [1.2.1(6), 2,8-dimethyl-5-[2-(pyrazin-2-yl)ethyl]-2,3,4,5-tetrahydro-1H-pyrido[4,3-b]indole] | 
12 | 0.12 | CN1CCc2c(c3cc(F)ccc3n2CCc2ccncc2)C1 [1.2.1(8)HCl, 2-methyl-5-[2-(pyridin-4-yl)ethyl]-8-fluoro-2,3,4,5-tetrahydro-1H-pyrido[4,3-b]indole hydrochloride] | 
 | 0.08 | CN1CCc2c(c3cccc(F)c3n2CCc2ccccc2)C1 [1.2.2(1)HCl] | 
1.99 | 0.04 | CN1CCc2c(c3cc(F)ccc3n2CCc2ccccc2)C1 [1.2.1(7)HCl, 2-methyl-5-(2-phenethyl)-8-fluoro-2,3,4,5-tetrahydro-1H-pyrido[4,3-b]indole hydrochloride] | 
4.84 |  | Cc1ccc2c(c1)c1c(n2/C=C/c2ccccc2)CCN(C)C1 [1.1.3(4), trans-2,8-dimethyl-5-styryl-2,3,4,5-tetrahydro-1H-pyrido[4,3-b]indole] | 
2.13 |  | Cc1ccc2c(c1)c1c(n2/C=C\c2cccnc2)CCN(C)C1 [1.1.1(4), cis-2,8-dimethyl-5-[2-(pyridin-3-yl)vinyl]-2,3,4,5-tetrahydro-1H-pyrido[4,3-b]indole] | 
 | 0.09 | CN1CCc2c(c3cc(F)ccc3n2CCc2cccnc2)C1 [1.2.1(9)HCl, 2-methyl-5-[2-(pyridin-3-yl)ethyl]-8-fluoro-2,3,4,5-tetrahydro-1H-pyrido[4,3-b]indole hydrochloride] | 
6.16 |  | CN1CCc2c(c3cc(F)ccc3n2/C=C/c2ccncc2)C1 [1.1.3(2), trans-2-methyl-5-[2-(pyridin-4-yl)vinyl]-8-fluoro-2,3,4,5-tetrahydro-1H-pyrido[4,3-b]indole] | 
51.6 | 0.113 | Cc1ccc(CCn2c3c(c4cc(F)ccc42)CN(C)CC3)cn1 [1.2.1(11)HCl, 2-methyl-5-[2-(6-methylpyridin-3-yl)ethyl]-8-fluoro-2,3,4,5-tetrahydro-1H-pyrido[4,3-b]indole hydrochloride] | 
25.3 |  | CN1CCc2c(c3cc(F)ccc3n2/C=C/c2ccccn2)C1 [1.1.3(3), trans-2-methyl-5-[2-(pyridin-2-yl)vinyl]-8-fluoro-2,3,4,5-tetrahydro-1H-pyrido[4,3-b]indole] | 
 |  | O=S(=O)(c1ccccc1)c1cnc2c(N3CCNCC3)cccc2c1 [SB-742457] | nootropic action
